Among the test systems are A498 renal; A549 NSCLC; CCRF-CEM leukemia; HL-60(TB) leukemia; LXFL 529 NSCLC; NCI-H460 lung; SK-MEL-5 melanoma; EKVX NSCLC; SK-OV-3 ovarian; NCI-H522 lung.
What all share (test): NCI tumour cell line growth inhibition, 48 h

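These data come from cells grown in 96-well plates and exposed to compound for 48 hours at five concentrations. Abbreviation: GI50, concentration required for 50% inhibition of growth. At the TGI there is no net growth.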

As for `CCN1C(C)=NC2C(=O)c3ccccc3C(=O)C21` (configuration not stated), the TGI in the assay with A498 renal, with A549 NSCLC, in the assay with CCRF-CEM leukemia, in the assay on HL-60(TB) leukemia, in the assay on LXFL 529 NSCLC and with NCI-H460 lung was above 100 µM in each case. Moreover, the TGI with SK-MEL-5 melanoma came out at 68 µM.

Turning to `O=C(O)/C(Cl)=C(\Cl)Nc1cccc(C(F)(F)F)c1`, the TGI in the assay on A549 NSCLC, with CCRF-CEM leukemia, in the assay with EKVX NSCLC, in the assay with HL-60(TB) leukemia, with LXFL 529 NSCLC and in the assay on NCI-H460 lung was above 100 µM throughout. In the assay on SK-OV-3 ovarian, this compound had a TGI above 100 µM.

`CC[O-].CC[O-].[O-]c1ccccc1C=Nc1ccccc1.[O-]c1ccccc1C=Nc1ccccc1.[Ti+4]`: the GI50 in the assay with A549 NSCLC was above 100 µM; in the assay on CCRF-CEM leukemia it was 10.9 µM; in the assay on EKVX NSCLC, above 100 µM; in the assay on HL-60(TB) leukemia it was above 100 µM; with LXFL 529 NSCLC it was 2.94 µM; in the assay with NCI-H460 lung, above 100 µM. In addition, the GI50 in the assay on SK-MEL-5 melanoma is 45.5 µM; in the assay with SK-OV-3 ovarian, above 100 µM. For the same compound, the TGI with A549 NSCLC, with CCRF-CEM leukemia, in the assay with EKVX NSCLC, with HL-60(TB) leukemia, in the assay on LXFL 529 NSCLC and in the assay on NCI-H460 lung was above 100 µM in each case. Also, the TGI in the assay on SK-MEL-5 melanoma and in the assay with SK-OV-3 ovarian was above 100 µM each time.

As for `C/C(CC(=O)CCCC(=O)Nc1ccc(Cl)cc1Cl)=N/NC(=O)CC#N`, the TGI in the assay on A498 renal, in the assay on A549 NSCLC, in the assay with CCRF-CEM leukemia, with EKVX NSCLC, in the assay with HL-60(TB) leukemia and with LXFL 529 NSCLC was above 100 µM each time. For the same compound, the TGI in the assay with NCI-H460 lung, with SK-MEL-5 melanoma and in the assay with SK-OV-3 ovarian was above 100 µM in each case.

Regarding `Cc1nc(NC(=S)NC(=O)c2ccc(Cl)c(Cl)c2)sc1C(=O)/C=C/c1ccccc1[N+](=O)[O-]`, the TGI in the assay on A549 NSCLC was 60.3 µM; in the assay on CCRF-CEM leukemia, 73.9 µM; in the assay on EKVX NSCLC, 91.6 µM; in the assay on HL-60(TB) leukemia, 45.8 µM; in the assay on LXFL 529 NSCLC, 74.3 µM; in the assay on NCI-H460 lung, above 100 µM. The TGI in the assay with NCI-H522 lung was 33.7 µM; with SK-OV-3 ovarian it was 49.7 µM.

Regarding `COc1cc2c(c(OC)c1OC)-c1ccc(OC)c(=O)cc1[C@@H](NC(=O)CCl)CC2`, the GI50 was below 0.01 µM with A498 renal; below 0.0141 µM in the assay on A549 NSCLC; below 0.01 µM in the assay on CCRF-CEM leukemia; below 0.0191 µM in the assay on EKVX NSCLC; below 0.01 µM with HL-60(TB) leukemia; below 0.01 µM with NCI-H460 lung. In addition, the GI50 in the assay with NCI-H522 lung, with SK-MEL-5 melanoma and in the assay with SK-OV-3 ovarian was below 0.01 µM throughout. In addition, the TGI was 0.164 µM in the assay on A498 renal; 25.6 µM with A549 NSCLC; above 33.3 µM in the assay on CCRF-CEM leukemia; 23.7 µM in the assay with EKVX NSCLC; below 0.0136 µM in the assay with HL-60(TB) leukemia; 0.585 µM in the assay with NCI-H460 lung. The TGI was below 0.01 µM in the assay on NCI-H522 lung and below 0.0124 µM in the assay on SK-MEL-5 melanoma.

As for `CC(C#N)c1cn(S(=O)(=O)c2ccccc2)c2ccccc12` (configuration not stated), the TGI with A549 NSCLC was above 100 µM; with CCRF-CEM leukemia it was above 100 µM; in the assay on HL-60(TB) leukemia, 88.1 µM; in the assay with LXFL 529 NSCLC, above 100 µM; in the assay on NCI-H460 lung it was above 100 µM; with NCI-H522 lung, 94.9 µM. Besides, in the assay with SK-MEL-5 melanoma, the TGI came to 36.9 µM.

Take `COc1cc(C(=O)C/C(CCC(=O)Nc2ccccc2[N+](=O)[O-])=N\NC(=O)C(N)=O)ccc1O`: the TGI in the assay on A549 NSCLC, in the assay on CCRF-CEM leukemia, in the assay on EKVX NSCLC, in the assay with HL-60(TB) leukemia, in the assay on LXFL 529 NSCLC and in the assay on NCI-H460 lung was above 100 µM in each case. In the assay with SK-OV-3 ovarian, the TGI was above 100 µM.

For `COc1ccc(-c2coc3ncnc(N)c23)cc1`, the GI50 is 13.7 µM in the assay with A498 renal; above 25 µM with A549 NSCLC; above 25 µM in the assay with CCRF-CEM leukemia; above 25 µM in the assay with EKVX NSCLC; above 25 µM in the assay on HL-60(TB) leukemia; above 25 µM with NCI-H460 lung. Moreover, the GI50 with NCI-H522 lung, with SK-MEL-5 melanoma and in the assay with SK-OV-3 ovarian was above 25 µM throughout. For the same compound, the TGI in the assay on A498 renal, in the assay with A549 NSCLC, with CCRF-CEM leukemia, with EKVX NSCLC, in the assay on HL-60(TB) leukemia and with NCI-H460 lung was above 25 µM throughout. For the same compound, the TGI with NCI-H522 lung, with SK-MEL-5 melanoma and in the assay with SK-OV-3 ovarian was above 25 µM each time.

For the compound `Cc1cc(N(CCOS(C)(=O)=O)CCOS(C)(=O)=O)ccc1C=Nc1ccc(-c2csc(-c3ccccc3)n2)c(Cl)c1`, the TGI in the assay with A498 renal was found to be 4.67 µM; in the assay on A549 NSCLC it was 15.9 µM; with CCRF-CEM leukemia, 23.3 µM; in the assay with EKVX NSCLC, 29.1 µM; in the assay with HL-60(TB) leukemia, 19.8 µM; in the assay with NCI-H460 lung it was 7.01 µM. In addition, the TGI with NCI-H522 lung came to 3.02 µM; in the assay with SK-MEL-5 melanoma it was 16.2 µM; in the assay with SK-OV-3 ovarian, 31.6 µM.

Turning to `COC1=CC(=O)c2ccc(C(C)C)cc2C1(C)C1=NC(C)(C)CO1` (configuration not stated), the TGI in the assay with A549 NSCLC, in the assay on CCRF-CEM leukemia, in the assay with EKVX NSCLC, in the assay with HL-60(TB) leukemia, in the assay with LXFL 529 NSCLC and in the assay with NCI-H460 lung was above 100 µM each time. Also, the TGI with NCI-H522 lung, in the assay with SK-MEL-5 melanoma and in the assay on SK-OV-3 ovarian was above 100 µM each time.

For `CCCCCCN(CCCCCC)C(=N)c1ccnc2ccccc12`, the GI50 in the assay with A498 renal was 3.07 µM; in the assay on A549 NSCLC it was 11.9 µM; in the assay on CCRF-CEM leukemia, 3.17 µM; in the assay with EKVX NSCLC, 8.58 µM; in the assay with HL-60(TB) leukemia it was 2.93 µM; in the assay on NCI-H460 lung, 2.59 µM. The GI50 in the assay on NCI-H522 lung is 2.55 µM; in the assay with SK-MEL-5 melanoma it was 1.96 µM; with SK-OV-3 ovarian it was 12.3 µM. For the same compound, the TGI with A498 renal was 16.6 µM; with A549 NSCLC, 25.9 µM; in the assay on CCRF-CEM leukemia, 18.4 µM; in the assay with EKVX NSCLC, 22.9 µM; in the assay on HL-60(TB) leukemia, 16.8 µM; with NCI-H460 lung, 12.7 µM. Also, the values for the TGI in the assay with NCI-H522 lung, with SK-MEL-5 melanoma and in the assay on SK-OV-3 ovarian were 11 µM, 3.45 µM and 24.7 µM, respectively.

(Values after PubChem BioAssay (NCI).)
